# Source: patent publication US12286442B2, “Methods and materials for increasing transcription factor eb polypeptide levels” (University of Pittsburgh—Of the Commonwealth System of …, priority 2019, dated 2025)
# Test system: TFEB
# Experiment: High content screen measuring TFEB nuclear accumulation (TFEB nuclear/cytosol ratio) in BEAS-2B cells stably expressing TFEB-EGFP
# Format: cell-based, human
# Conditions: 18 hours incubation
# Experimental: FIG. 3. High content screen assay (384 well) measuring TFEB nuclear accumulation. Approximately 2500 primary and immortalized human bronchial epithelial cells (BEAS-2B) stably expressing TFEB-EGFP in 25 μL of HITEs media with 10% FBS were dispensed into 384 well plate (Black with glass bottom) and incubated for 8 hours. Compound serial dilution (DMEM low glucose media with 2% FBS, 25 μL volume) were prepared using a robotic liquid hander. Compound solutions were then added to the cell plate and incubated for 18 hours. Cells were then fixed with 4% PFA followed by DAPI staining. TFEB localization was imaged on the GFP channel along with the DAPI signal using a Cytation 5 high content imager. Images were processed through Biotek Gen5 software; specifically, the DAPI signal was used as the primary mask to quantify the nuclear TFEB-GFP signal. The cytosolic TFEB-GFP signal was quantified through expanding the primary mask. The TFEB nuclear/cytosol ratios were calculated from nuclear TFEB-GFP signal/cytosol TFEB-GFP signal, which determined the compound efficacy. […] Compound activities (μM) were determined by the minimal compound concentration needed to increase TFEB nuclear/cytosol ratio by 25%. Activity: “−” equals >25 μM; “+” equals between 25 μM and >10 μM; “++” equals between ≤10 μM and >1 μM; and “+++” equals […]. N=4.
# (§1) Approximately 2300 primary and immortalized human bronchial epithelial cells (BEAS-2B) stably expressing TFEB-EGFP in 25 μL of HITEs media with 10% FBS were dispensed into 384 well plate (Black with glass bottom) and incubated for 8 hours. Compound serial dilution (DMEM low glucose media with 2% FBS, 25 μL volume) were prepared using a robotic liquid hander. Compound solution were then added to the cell plate and incubated for 18 hours. Cells were then fixed with 4% PFA followed by DAPI staining. TFEB localization was imaged on the GFP channel along with the DAPI signal using a Cytation 5 high content imager. Images were processed through Biotek Gen5 software. Specifically, the DAPI signal was used as the primary mask to quantify the nuclear TFEB-GFP signal. Cytosolic TFEB-GFP signal was quantified through expanding the primary mask. The TFEB nuclear/cytosol ratios were calculated from nuclear TFEB-GFP signal/cytosol TFEB-GFP signal, which determined the compound efficacies.
# Compounds efficacies (μM) were determined by the minimal compound concentration needed to increase TFEB nuclear/cytosol ratio by 25%. Activity: “+” equals >25 μM; “++” equals between ≤25 μM and >1 μM; and “+++” equals ≤1 μM.
# A high-content imaging screen was conducted using Beas2B cells that stably express GFP-TFEB.
row,Compound,efficacy (minimal compound concentration needed to increase TFEB nuclear/cytosol ratio by 25%)
1,c1ccc(CCNc2nc(-c3ccncc3)nc3ccccc23)cc1 [Compound 167],++ (“++” equals between ≤25 μM and >1 μM)
2,c1ccc2c(Nc3ccc4[nH]cnc4c3)nc(-c3ccncc3)nc2c1 [Compound 193],++ (“++” equals between ≤25 μM and >1 μM)
3,Fc1cccc(Nc2nc(-c3ccncc3)cc3ccccc23)c1 [Compound 43],++ (“++” equals between ≤25 μM and >1 μM)
4,c1cc(Nc2nc(-c3ccncc3)nc3ccccc23)c2[nH]ccc2c1 [Compound 98],+++ (“+++” equals ≤1 μM)
5,c1cnc2cc(-c3ccncc3)nc(Nc3ccc4[nH]c(C5CC5)cc4c3)c2c1 [Compound 244],+++ (“+++” equals ≤1 μM)
6,c1ccc2c(Nc3cccc4[nH]ncc34)nc(-c3ccncc3)nc2c1 [Compound 99],+++ (“+++” equals ≤1 μM)
7,c1ccc2c(Nc3ccc4c(c3)OCCN4)nc(-c3ccncc3)nc2c1 [Compound 41],++ (“++” equals between ≤25 μM and >1 μM)
8,CCc1nc2ccc(Nc3nc(-c4ccncc4)nc4cc(F)ccc34)cc2s1 [Compound 366],+ (“+” equals >25 μM)
9,COc1ccc2nc(-c3ccncc3)nc(Nc3ccc4nc(C(C)C)sc4c3)c2c1 [Compound 376],+++ (“+++” equals ≤1 μM)
10,c1cc(-c2nc(Nc3ccc4[nH]ccc4c3)c3cnccc3n2)ccn1 [Compound 84],+++ (“+++” equals ≤1 μM)
11,COc1cc(F)cc(Nc2nc(-c3ccncc3)nc3ccccc23)c1 [Compound 19],+ (“+” equals >25 μM)
12,c1cnc2ccc(Nc3nc(-c4ccncc4)nc4ccccc34)cc2c1 [Compound 57],+++ (“+++” equals ≤1 μM)
13,Fc1ccc2nc(-c3ccncc3)nc(Nc3ccc4[nH]ccc4c3)c2c1 [Compound 110],+++ (“+++” equals ≤1 μM)
14,COc1ccc2c(Nc3ccc4[nH]ccc4c3)nc(-c3ccncc3)nc2c1 [Compound 114],+++ (“+++” equals ≤1 μM)
15,c1ccc(-c2cc3ncccc3c(Nc3ccc4nc(C5CC5)sc4c3)n2)nc1 [Compound 248],++ (“++” equals between ≤25 μM and >1 μM)
16,Cc1nc2ccc(Nc3nc(-c4ccncc4)nc4c(C)cccc34)cc2s1 [Compound 378],+++ (“+++” equals ≤1 μM)
17,Cc1c(Nc2nc(-c3ccncc3)nc3ccncc23)ccc2[nH]ccc12 [Compound 126],++ (“++” equals between ≤25 μM and >1 μM)
18,COc1ccc2nc(-c3ccncc3)nc(Nc3ccc4nc(C(C)C)sc4c3)c2c1 [Compound 353],++ (“++” equals between ≤25 μM and >1 μM)
19,CC(C#N)CN(C)c1nc(-c2ccncc2)nc2ccccc12 (centres unmarked) [Compound 173],+ (“+” equals >25 μM)
20,Cc1cc2c(F)c(Nc3nc(-c4ccncc4)nc4ccccc34)ccc2[nH]1 [Compound 30],+++ (“+++” equals ≤1 μM)
21,c1ccc2c(Nc3ccc4cnsc4c3)nc(-c3cncs3)nc2c1 [Compound 390],+ (“+” equals >25 μM)
22,CCCCNc1nc(-c2ccncc2)nc2ccccc12 [Compound 164],+ (“+” equals >25 μM)
23,CCc1nc2ccc(Nc3nc(-c4ccncc4)nc4c(OC)cccc34)cc2s1 [Compound 362],+ (“+” equals >25 μM)
24,Cc1nc2cc(C)c(Nc3nc(-c4ccncc4)nc4ccccc34)cc2s1 [Compound 86],+++ (“+++” equals ≤1 μM)
25,Cc1cccc(Nc2nc(-c3ccncc3C)nc3ccccc23)c1 [Compound 54],+ (“+” equals >25 μM)

# Test system: BEAS-2B cells
# Experiment: Toxicity: compound concentration needed to induce greater than 50 percent of cell loss
# Format: cell-based, human
# Conditions: 18 hours incubation
# Experimental: as §1
# Toxicity was determined by determining the compound concentration needed to induce greater than 50 percent of cell loss. For toxicity, cell loss of greater than 50 percent at a concentration that equals or is greater than 25 μM was represented as cell loss of greater than 50 percent at a concentration less than 25 μM and greater than 1 μM was represented as and cell loss of greater than 50 percent at a concentration that equals or is less than 1 μM was represented as “+++.” The assay results for compounds 1-202, 214-248, 332, 333, and 352-402 are shown in Table A.
row,Compound,toxicity (compound concentration needed to induce greater than 50 percent of cell loss)
1,c1ccc(CCNc2nc(-c3ccncc3)nc3ccccc23)cc1 [Compound 167],+ (cell loss of greater than 50 percent at a concentration that equals or is greater than 25 μM was represented as)
2,c1ccc2c(Nc3ccc4[nH]cnc4c3)nc(-c3ccncc3)nc2c1 [Compound 193],++ (cell loss of greater than 50 percent at a concentration less than 25 μM and greater than 1 μM was represented as)
3,Fc1cccc(Nc2nc(-c3ccncc3)cc3ccccc23)c1 [Compound 43],+ (cell loss of greater than 50 percent at a concentration that equals or is greater than 25 μM was represented as)
4,c1cc(Nc2nc(-c3ccncc3)nc3ccccc23)c2[nH]ccc2c1 [Compound 98],+ (cell loss of greater than 50 percent at a concentration that equals or is greater than 25 μM was represented as)
5,c1cnc2cc(-c3ccncc3)nc(Nc3ccc4[nH]c(C5CC5)cc4c3)c2c1 [Compound 244],+ (cell loss of greater than 50 percent at a concentration that equals or is greater than 25 μM was represented as)
6,c1ccc2c(Nc3cccc4[nH]ncc34)nc(-c3ccncc3)nc2c1 [Compound 99],+ (cell loss of greater than 50 percent at a concentration that equals or is greater than 25 μM was represented as)
7,c1ccc2c(Nc3ccc4c(c3)OCCN4)nc(-c3ccncc3)nc2c1 [Compound 41],++ (cell loss of greater than 50 percent at a concentration less than 25 μM and greater than 1 μM was represented as)
8,CCc1nc2ccc(Nc3nc(-c4ccncc4)nc4cc(F)ccc34)cc2s1 [Compound 366],+ (cell loss of greater than 50 percent at a concentration that equals or is greater than 25 μM was represented as)
9,COc1ccc2nc(-c3ccncc3)nc(Nc3ccc4nc(C(C)C)sc4c3)c2c1 [Compound 376],+ (cell loss of greater than 50 percent at a concentration that equals or is greater than 25 μM was represented as)
10,c1cc(-c2nc(Nc3ccc4[nH]ccc4c3)c3cnccc3n2)ccn1 [Compound 84],+ (cell loss of greater than 50 percent at a concentration that equals or is greater than 25 μM was represented as)
11,COc1cc(F)cc(Nc2nc(-c3ccncc3)nc3ccccc23)c1 [Compound 19],+ (cell loss of greater than 50 percent at a concentration that equals or is greater than 25 μM was represented as)
12,c1cnc2ccc(Nc3nc(-c4ccncc4)nc4ccccc34)cc2c1 [Compound 57],+ (cell loss of greater than 50 percent at a concentration that equals or is greater than 25 μM was represented as)
13,Fc1ccc2nc(-c3ccncc3)nc(Nc3ccc4[nH]ccc4c3)c2c1 [Compound 110],+ (cell loss of greater than 50 percent at a concentration that equals or is greater than 25 μM was represented as)
14,COc1ccc2c(Nc3ccc4[nH]ccc4c3)nc(-c3ccncc3)nc2c1 [Compound 114],++ (cell loss of greater than 50 percent at a concentration less than 25 μM and greater than 1 μM was represented as)
15,c1ccc(-c2cc3ncccc3c(Nc3ccc4nc(C5CC5)sc4c3)n2)nc1 [Compound 248],+ (cell loss of greater than 50 percent at a concentration that equals or is greater than 25 μM was represented as)
16,Cc1nc2ccc(Nc3nc(-c4ccncc4)nc4c(C)cccc34)cc2s1 [Compound 378],+ (cell loss of greater than 50 percent at a concentration that equals or is greater than 25 μM was represented as)
17,Cc1c(Nc2nc(-c3ccncc3)nc3ccncc23)ccc2[nH]ccc12 [Compound 126],+ (cell loss of greater than 50 percent at a concentration that equals or is greater than 25 μM was represented as)
18,COc1ccc2nc(-c3ccncc3)nc(Nc3ccc4nc(C(C)C)sc4c3)c2c1 [Compound 353],+ (cell loss of greater than 50 percent at a concentration that equals or is greater than 25 μM was represented as)
19,CC(C#N)CN(C)c1nc(-c2ccncc2)nc2ccccc12 (centres unmarked) [Compound 173],+ (cell loss of greater than 50 percent at a concentration that equals or is greater than 25 μM was represented as)
20,Cc1cc2c(F)c(Nc3nc(-c4ccncc4)nc4ccccc34)ccc2[nH]1 [Compound 30],+++ (cell loss of greater than 50 percent at a concentration that equals or is less than 1 μM was represented as “+++.”)
21,c1ccc2c(Nc3ccc4cnsc4c3)nc(-c3cncs3)nc2c1 [Compound 390],+ (cell loss of greater than 50 percent at a concentration that equals or is greater than 25 μM was represented as)
22,CCCCNc1nc(-c2ccncc2)nc2ccccc12 [Compound 164],+ (cell loss of greater than 50 percent at a concentration that equals or is greater than 25 μM was represented as)
23,CCc1nc2ccc(Nc3nc(-c4ccncc4)nc4c(OC)cccc34)cc2s1 [Compound 362],+ (cell loss of greater than 50 percent at a concentration that equals or is greater than 25 μM was represented as)
24,Cc1nc2cc(C)c(Nc3nc(-c4ccncc4)nc4ccccc34)cc2s1 [Compound 86],+++ (cell loss of greater than 50 percent at a concentration that equals or is less than 1 μM was represented as “+++.”)
25,Cc1cccc(Nc2nc(-c3ccncc3C)nc3ccccc23)c1 [Compound 54],+ (cell loss of greater than 50 percent at a concentration that equals or is greater than 25 μM was represented as)
